Data reported in patent EP0497314A1, “Use of azapirones in attention deficit hyperactivity disorder” (Bristol-Myers Squibb Company, priority 1991, dated 1992).
Where a name gives a salt, the structure may show the parent alone. Marks after values point to notes of the source that are not given here.

Assays:
rabbit cortex = assay: Quantitative EEG, rabbit cortex, intravenous administration; type: in vivo, rabbits; conditions: for group percent change in electrical energy from pre-drug control, Δ band / mean change ± S.E. in electrical energy from pre-drug control, Δ band / group percent change in electrical energy from pre-drug control, α band / mean change ± S.E. in electrical energy from pre-drug control, α band / group percent change in electrical energy from pre-drug control, β band / mean change ± S.E. in electrical energy from pre-drug control, β band / group percent change in electrical energy from pre-drug control, γ band / mean change ± S.E. in electrical energy from pre-drug control, γ band / group percent change in electrical energy from pre-drug control, θ band / mean change ± S.E. in electrical energy from pre-drug control, θ band: rabbit cortex; for group percent change in electrical energy from pre-drug control, Δ band / mean change ± S.E. in electrical energy from pre-drug control, Δ band: Δ = 0.5-3.5 Hz; for group percent change in electrical energy from pre-drug control, α band / mean change ± S.E. in electrical energy from pre-drug control, α band: α= 7-13 Hz; for group percent change in electrical energy from pre-drug control, β band / mean change ± S.E. in electrical energy from pre-drug control, β band: β= 13-25 Hz; for group percent change in electrical energy from pre-drug control, γ band / mean change ± S.E. in electrical energy from pre-drug control, γ band: γ= 25-40 Hz; for group percent change in electrical energy from pre-drug control, θ band / mean change ± S.E. in electrical energy from pre-drug control, θ band: θ= 3.5-7.0 Hz
Method: At least 2 weeks were allowed for recovery before beginning experimentation.
Groups of four animals each were individually restrained and connected to an EEG amplifier and frequency analyzer. The EEG of each animal was recorded on a separate channel. The instrumentation filtered each channel of EEG analog data into five distinct frequency bands: Δ=0.5-3.5 Hz, ϑ=3.5-7.0 Hz, α=7-13 Hz, β=13-25 Hz and γ=25-40 Hz. The EEG analyzer then integrated the filtered waveforms and sent pulses to an associated computer at a rate proportional to the electrical energy of each band. Thus, one computer print-out provided a cortical EEG profile for the entire group of four rabbits.
Data from a one-hour recording period were collected in four 15-minute periods, which provided additional information concerning both onset and time of peak effect of drug activity. However, in this report only the mean activity of the four data collection periods was considered since onset of drug activity was immediate and duration of action was at least one hour for all drugs studied. Drug-induced EEG changes were determined by comparing the post-treatment print-out to the pretreatment control in the same animal and statistical analysis was performed on change from control, in counts, using multiple Student-t paired-comparison tests with p≦0.05 (Table 1). However, for clarity data are also presented as percent change from control (Figures 1 and 2).
All drugs were administered intravenously in saline solution as their respective salts and all dosage calculations were based on the free base. Recording was started immediately after injection and animals were not used more often than once per week. Initial doses were reduced geometrically until a no-effect dose was determined for each drug. However, only the "no-effect" data and the data generated from the next higher dose are presented in this report since the shape of the EEG profile is not dose-related, as opposed to the magnitude of the response which is dose-related.

[1] = tested on: fronto-occipital cortex of the cat; assay: Quantitative EEG, fronto-occipital cat cortex, subcutaneous administration; type: in vivo, cats; conditions: for group percent change in electrical energy from pre-drug control, Δ band / mean change ± S.E. in electrical energy from pre-drug control, Δ band / group percent change in electrical energy from pre-drug control, α band / mean change ± S.E. in electrical energy from pre-drug control, α band / group percent change in electrical energy from pre-drug control, β band / mean change ± S.E. in electrical energy from pre-drug control, β band / group percent change in electrical energy from pre-drug control, γ band / mean change ± S.E. in electrical energy from pre-drug control, γ band / group percent change in electrical energy from pre-drug control, θ band / mean change ± S.E. in electrical energy from pre-drug control, θ band: fronto-occipital cat cortex; for group percent change in electrical energy from pre-drug control, Δ band / mean change ± S.E. in electrical energy from pre-drug control, Δ band: Δ = 0.05-35 Hz; for group percent change in electrical energy from pre-drug control, α band / mean change ± S.E. in electrical energy from pre-drug control, α band: α= 7-13 Hz; for group percent change in electrical energy from pre-drug control, β band / mean change ± S.E. in electrical energy from pre-drug control, β band: β= 13-25 Hz; for group percent change in electrical energy from pre-drug control, γ band / mean change ± S.E. in electrical energy from pre-drug control, γ band: γ= 25-40 Hz; for group percent change in electrical energy from pre-drug control, θ band / mean change ± S.E. in electrical energy from pre-drug control, θ band: θ= 3.5-7.0 Hz
Source text: This unique combination of activity may render buspirone useful in the treatment of childhood hyperkinesis which has been reported to respond to both selected phenothiazine and stimulant drugs. • (b) Adult mongrel female cats weighing 2.5-4.0 kg were implanted with EEG recording electrodes. Recording sites were as follows: fronto-occipital cortex, basal amygdala and ventral hippocampus.
Animals were individually held in canvas feline restraining bags for EEG recording. The EEG of each brain area was recorded on a separate channel. The instrumentation filtered each channel of EEG and analog data into five distinct frequency bands: Δ=0.5-3.5 Hz, ϑ=3.5-7.0 Hz, α=7-13 Hz, β=13-25 Hz and γ=25-40 Hz. The EEG analyzer then integrated the filtered waveforms and sent pulses to an associated computer at a rate proportional to the electrical energy of each band. Data collecting procedures were essentially the same as reported in Example 1. However, groups of six animals each were used and all drugs were administered subcutaneously in saline solution as their respective salts, but all dosages were calculated as the free base. Recording was started 30 minutes after injection to insure adequate drug absorption for peak activity.
Drug-induced EEG changes were determined by comparing the post-treatment data to the pre-treatment control in the same animal. Statistical analysis was performed on change from control, in instrument counts, using multiple Student-t-paired-comparison test with P≦0.05 (Table 2). However, for clarity data are also presented as percent change from control (Figures 3, 4 and 5).
The data in Table 2 are drug-induced changes resulting from the minimum and higher doses of each compound required to elicit the EEG profile characteristic of that particular drug.

COC(=O)C(c1ccccc1)C1CCCCN1 (stereo not drawn) [Methylphenidate HCl, methylphenidate]
minimal effective dose (rabbit cortex; Oryctolagus cuniculus, iv, read-out: the minimum dose required to produce the EEG profile characteristic of that particular drug): 0.125 mg/kg
relative potency by comparing minimal doses required to elicit EEG profiles (rabbit cortex; rabbit cortex EEG, i.v.): approximately four times more potent than buspirone
the no-effect dose (rabbit cortex; rabbit cortex EEG, dose of free base): 0.0625† mg/kg, i.v.
group percent change in electrical energy from pre-drug control, Δ band (rabbit cortex; 0.0625 mg/kg free base i.v.): +3%
mean change ± S.E. in electrical energy from pre-drug control, Δ band (rabbit cortex; 0.0625 mg/kg free base i.v.): +7 ± 19 instrument counts
group percent change in electrical energy from pre-drug control, Δ band (rabbit cortex; 0.125 mg/kg free base i.v.): -36%
mean change ± S.E. in electrical energy from pre-drug control, Δ band (rabbit cortex; 0.125 mg/kg free base i.v.): -120 ± 36 instrument counts
group percent change in electrical energy from pre-drug control, α band (rabbit cortex; 0.0625 mg/kg free base i.v.): +6%
mean change ± S.E. in electrical energy from pre-drug control, α band (rabbit cortex; 0.0625 mg/kg free base i.v.): +8 ± 10 instrument counts
group percent change in electrical energy from pre-drug control, α band (rabbit cortex; 0.125 mg/kg free base i.v.): -23%
mean change ± S.E. in electrical energy from pre-drug control, α band (rabbit cortex; 0.125 mg/kg free base i.v.): -47 ± 16 instrument counts
group percent change in electrical energy from pre-drug control, β band (rabbit cortex; 0.0625 mg/kg free base i.v.): +4%
mean change ± S.E. in electrical energy from pre-drug control, β band (rabbit cortex; 0.0625 mg/kg free base i.v.): +4 ± 6 instrument counts
group percent change in electrical energy from pre-drug control, β band (rabbit cortex; 0.125 mg/kg free base i.v.): -22%
mean change ± S.E. in electrical energy from pre-drug control, β band (rabbit cortex; 0.125 mg/kg free base i.v.): -35 ± 6 instrument counts
group percent change in electrical energy from pre-drug control, γ band (rabbit cortex; 0.0625 mg/kg free base i.v.): -1%
mean change ± S.E. in electrical energy from pre-drug control, γ band (rabbit cortex; 0.0625 mg/kg free base i.v.): -1 ± 2 instrument counts
group percent change in electrical energy from pre-drug control, γ band (rabbit cortex; 0.125 mg/kg free base i.v.): -7%
mean change ± S.E. in electrical energy from pre-drug control, γ band (rabbit cortex; 0.125 mg/kg free base i.v.): -9 ± 2 instrument counts
group percent change in electrical energy from pre-drug control, θ band (rabbit cortex; 0.0625 mg/kg free base i.v.): +6%
mean change ± S.E. in electrical energy from pre-drug control, θ band (rabbit cortex; 0.0625 mg/kg free base i.v.): +3 ± 9 instrument counts
group percent change in electrical energy from pre-drug control, θ band (rabbit cortex; 0.125 mg/kg free base i.v.): -24%
mean change ± S.E. in electrical energy from pre-drug control, θ band (rabbit cortex; 0.125 mg/kg free base i.v.): -60 ± 16 instrument counts
minimal effective dose ([1]; Felis catus, sc, read-out: the minimum dose required to produce the EEG profile characteristic of that particular drug): 0.25 mg/kg
relative potency by comparing minimal doses required to elicit EEG profiles ([1]; cat cortex EEG, s.c.): equal potency
the no-effect dose ([1]; fronto-occipital cat cortex EEG, dose of free base): 0.125† mg/kg, s.c.
group percent change in electrical energy from pre-drug control, Δ band ([1]; 0.125 mg/kg free base s.c.): -22%
mean change ± S.E. in electrical energy from pre-drug control, Δ band ([1]; 0.125 mg/kg free base s.c.): -44 ± 18 instrument counts
group percent change in electrical energy from pre-drug control, Δ band ([1]; 0.25 mg/kg free base s.c.): -14%
mean change ± S.E. in electrical energy from pre-drug control, Δ band ([1]; 0.25 mg/kg free base s.c.): -31 ± 18 instrument counts
group percent change in electrical energy from pre-drug control, Δ band ([1]; 1.0 mg/kg free base s.c.): -2%
mean change ± S.E. in electrical energy from pre-drug control, Δ band ([1]; 1.0 mg/kg free base s.c.): -4 ± 30 instrument counts
group percent change in electrical energy from pre-drug control, Δ band ([1]; 4.0 mg/kg free base s.c.): -8%
mean change ± S.E. in electrical energy from pre-drug control, Δ band ([1]; 4.0 mg/kg free base s.c.): -16 ± 45 instrument counts
group percent change in electrical energy from pre-drug control, α band ([1]; 0.125 mg/kg free base s.c.): -18%
mean change ± S.E. in electrical energy from pre-drug control, α band ([1]; 0.125 mg/kg free base s.c.): -24 ± 10 instrument counts
group percent change in electrical energy from pre-drug control, α band ([1]; 0.25 mg/kg free base s.c.): -31%
mean change ± S.E. in electrical energy from pre-drug control, α band ([1]; 0.25 mg/kg free base s.c.): -39 ± 12 instrument counts
group percent change in electrical energy from pre-drug control, α band ([1]; 1.0 mg/kg free base s.c.): -46%
mean change ± S.E. in electrical energy from pre-drug control, α band ([1]; 1.0 mg/kg free base s.c.): -52 ± 14 instrument counts
group percent change in electrical energy from pre-drug control, α band ([1]; 4.0 mg/kg free base s.c.): -51%
mean change ± S.E. in electrical energy from pre-drug control, α band ([1]; 4.0 mg/kg free base s.c.): -63 ± 11 instrument counts
group percent change in electrical energy from pre-drug control, β band ([1]; 0.125 mg/kg free base s.c.): -2%
mean change ± S.E. in electrical energy from pre-drug control, β band ([1]; 0.125 mg/kg free base s.c.): -3 ± 5 instrument counts
group percent change in electrical energy from pre-drug control, β band ([1]; 0.25 mg/kg free base s.c.): -9%
mean change ± S.E. in electrical energy from pre-drug control, β band ([1]; 0.25 mg/kg free base s.c.): -11 ± 4 instrument counts
group percent change in electrical energy from pre-drug control, β band ([1]; 1.0 mg/kg free base s.c.): -19%
mean change ± S.E. in electrical energy from pre-drug control, β band ([1]; 1.0 mg/kg free base s.c.): -20 ± 5 instrument counts
group percent change in electrical energy from pre-drug control, β band ([1]; 4.0 mg/kg free base s.c.): -12%
mean change ± S.E. in electrical energy from pre-drug control, β band ([1]; 4.0 mg/kg free base s.c.): -14 ± 4 instrument counts
group percent change in electrical energy from pre-drug control, γ band ([1]; 0.125 mg/kg free base s.c.): +7%
mean change ± S.E. in electrical energy from pre-drug control, γ band ([1]; 0.125 mg/kg free base s.c.): +6 ± 2 instrument counts
group percent change in electrical energy from pre-drug control, γ band ([1]; 0.25 mg/kg free base s.c.): +9%
mean change ± S.E. in electrical energy from pre-drug control, γ band ([1]; 0.25 mg/kg free base s.c.): +7 ± 2 instrument counts
group percent change in electrical energy from pre-drug control, γ band ([1]; 1.0 mg/kg free base s.c.): +13%
mean change ± S.E. in electrical energy from pre-drug control, γ band ([1]; 1.0 mg/kg free base s.c.): +10 ± 3 instrument counts
group percent change in electrical energy from pre-drug control, γ band ([1]; 4.0 mg/kg free base s.c.): +35%
mean change ± S.E. in electrical energy from pre-drug control, γ band ([1]; 4.0 mg/kg free base s.c.): +25 ± 5 instrument counts
group percent change in electrical energy from pre-drug control, θ band ([1]; 0.125 mg/kg free base s.c.): -20%
mean change ± S.E. in electrical energy from pre-drug control, θ band ([1]; 0.125 mg/kg free base s.c.): -31 ± 11 instrument counts
group percent change in electrical energy from pre-drug control, θ band ([1]; 0.25 mg/kg free base s.c.): -27%
mean change ± S.E. in electrical energy from pre-drug control, θ band ([1]; 0.25 mg/kg free base s.c.): -38 ± 16 instrument counts
group percent change in electrical energy from pre-drug control, θ band ([1]; 1.0 mg/kg free base s.c.): -34%
mean change ± S.E. in electrical energy from pre-drug control, θ band ([1]; 1.0 mg/kg free base s.c.): -45 ± 17 instrument counts
group percent change in electrical energy from pre-drug control, θ band ([1]; 4.0 mg/kg free base s.c.): -41%
mean change ± S.E. in electrical energy from pre-drug control, θ band ([1]; 4.0 mg/kg free base s.c.): -56 ± 14 instrument counts
